By DC50 is commonly meant the concentration giving 50% degradation.

Read-outs that look alike come from different tables or passages of the source.

For 26 compounds, DC50 results are on record in patent US12091411B2, “IRAK degraders and uses thereof” (Kymera Therapeutics, Inc., priority 2022, dated 2024).

This assay has as its target T1, IRAK4 (Homo sapiens, UniProt Q9NWZ3).
T1 construct: Degradation of IRAK4 in OCI-LY10 was quantitatively measured using Meso Scale Discovery technology; endogenous in cells; host or cells: OCI-LY10
T1 sequence (Q9NWZ3 1-460): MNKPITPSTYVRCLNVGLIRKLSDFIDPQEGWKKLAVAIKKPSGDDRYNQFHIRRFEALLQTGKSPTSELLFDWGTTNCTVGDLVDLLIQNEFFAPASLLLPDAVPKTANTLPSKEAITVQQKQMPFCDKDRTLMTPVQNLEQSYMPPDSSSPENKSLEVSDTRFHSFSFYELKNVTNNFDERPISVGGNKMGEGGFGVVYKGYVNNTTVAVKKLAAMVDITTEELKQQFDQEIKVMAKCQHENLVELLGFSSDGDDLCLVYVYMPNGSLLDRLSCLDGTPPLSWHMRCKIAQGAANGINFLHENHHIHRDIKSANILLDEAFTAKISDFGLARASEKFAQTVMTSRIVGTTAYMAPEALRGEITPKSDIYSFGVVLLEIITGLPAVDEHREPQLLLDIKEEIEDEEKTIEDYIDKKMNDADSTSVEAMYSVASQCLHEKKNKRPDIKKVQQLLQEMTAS
The experiment in a line: IRAK4 MSD Degradation in OCI-LY10. As to conditions: OCI-LY10 cells, MSD. It counts as cell-based. On the procedure: Degradation of IRAK4 in OCI-LY10 was quantitatively measured using Meso Scale Discovery technology. […] Compounds were then added to the assay plates with a final top concentration of 1 to 10 μM in a 1:3 dilution series with total of 8 doses. The assay plates were then incubated for 4 to 24 hours at 37° C. under 5% CO2. […] To prepare MSD assay plates (Meso Scale Discovery Catalog number L15XA-3), the plates were coated with 2 μg/mL capture antibody (mouse Anti-IRAK4 antibody [2H9], ab119942) in PBS, at 40 μL/well. […] Cell lysates were then added to MSD assay plates and the plates were incubated at room temperature for 1 hour. The plates were then washed 3 times with 150 μL/well TBST buffer and 25 μL/well primary detection antibody (rabbit Anti-IRAK4 antibody [Y279], from Abcam. Catalog number ab32511, 1 μg/mL). The assay plates were then incubated at room temperature for 1 hour, washed 3 times with 150 μL/well TBST buffer and 25 μL/well secondary detection antibody, SULFO-TAG anti-rabbit antibody were added (anti-rabbit antibody from Meso Scale Discovery, Catalog number R32AB-1, 1 μg/mL). The assay plates were then incubated at room temperature for 1 hour, washed 3 times with 150 μL/well TBST buffer, and 150 μL/well MSD reading buffer (Meso Scale Discovery catalog number R92TC-2) was added. The plates were then analyzed by a MSD reader (Meso Scale Discovery, Model Quick Plex SQ 120). The data was then analyzed by software Prism 7.0 from GraphPad and the dose-depended IRAK4 degradation were fit using a three-parameter logistic equation to calculate DC50.
The letter codes for IRAK4 DC50 include: A (<0.01 μM); B (0.01 to <0.1 μM); C (0.1 to 0.2 μM); and D (>0.2 μM or not tested).

[1] abbreviates: 4 hrs incubation, read-out: IRAK4 degradation in OCI-LY10 at 4 hrs: DC50.
[2] abbreviates: 24 hrs incubation, read-out: IRAK4 degradation in OCI-LY10 at 24 hrs: DC50.

With `Cn1c(=O)n(C2CCC(=O)NC2=O)c2cccc(C#CCN3CCN(C[C@H]4CC[C@H](n5cc(NC(=O)c6cnn7ccc(N8C[C@H]9C[C@@H]8CO9)nc67)c(C(F)(F)F)n5)CC4)CC3)c21` (relative stereo) [I-112], the DC50 reads like this: under setting [1], 10 to 100 nM; under setting [2], greater than 200 nM.

For the compound `Cn1c(=O)n(C2CCC(=O)NC2=O)c2cccc(CCCN3CCN(C[C@H]4CC[C@H](n5cc(NC(=O)c6cnn7ccc(N8C[C@H]9C[C@@H]8CO9)nc67)c(C(F)F)n5)CC4)CC3)c21` (relative stereo) [I-114], the DC50 by setting is: under setting [1], less than 10 nM; under setting [2], greater than 200 nM.

Regarding `Cc1nn([C@H]2CC[C@H](CN3CCN(CC#Cc4cccc5c4n(C)c(=O)n5C4CCC(=O)NC4=O)CC3)CC2)cc1NC(=O)c1cnn2ccc(N3C[C@H]4C[C@@H]3CO4)nc12` (relative stereo) [I-115], the DC50 was 10 to 100 nM under setting [1] and greater than 200 nM under setting [2].

Turning to `Cn1c(=O)n(C2CCC(=O)NC2=O)c2cccc(C#CCN3CCN(C[C@H]4CC[C@H](n5cc(NC(=O)c6cnn7ccc(N8C[C@H]9C[C@@H]8CO9)nc67)c(Cl)n5)CC4)CC3)c21` (relative stereo) [I-117], the DC50 reads like this: under setting [1], greater than 200 nM; under setting [2], 10 to 100 nM.

Take `C[C@H]1CN(C[C@H]2CC[C@H](n3cc(NC(=O)c4cnn5ccc(N6C[C@H]7C[C@@H]6CO7)nc45)c(C(F)F)n3)CC2)CC[C@@H]1OCC#Cc1cccc2c1n(C)c(=O)n2[C@H]1CCC(=O)NC1=O` (single isomer, unassigned) [I-67]: the 50% degradation concentration (DC50) was less than 10 nM under setting [1] and greater than 200 nM under setting [2].

`Cn1c(=O)n([C@@H]2CCC(=O)NC2=O)c2cccc(C#CCN3CCN(C[C@H]4CC[C@H](n5cc(NC(=O)c6cnn7ccc(N8C[C@H]9C[C@@H]8CO9)nc67)c(C(F)F)n5)CC4)CC3)c21` (single isomer, unassigned) [I-71]: the DC50 by setting is: under setting [1], 10 to 100 nM; under setting [2], greater than 200 nM.

For the compound `Cn1c(=O)n([C@H]2CCC(=O)NC2=O)c2cccc(C#CCN3CCN(C[C@H]4CC[C@H](n5cc(NC(=O)c6cnn7ccc(N8C[C@H]9C[C@@H]8CO9)nc67)c(C(F)F)n5)CC4)CC3)c21` (single isomer, unassigned) [I-72], the DC50 runs as follows: under setting [1], less than 10 nM; under setting [2], greater than 200 nM.

With `C[C@H]1CN(C[C@H]2CC[C@H](n3cc(NC(=O)c4cnn5ccc(N6C[C@H]7C[C@@H]6CO7)nc45)c(C(F)F)n3)CC2)CC[C@@H]1OCC#Cc1cccc2c1n(C)c(=O)n2[C@@H]1CCC(=O)NC1=O` (single isomer, unassigned) [I-73], the 50% degradation concentration (DC50) reads like this: under setting [1], 10 to 100 nM; under setting [2], greater than 200 nM.

For `Cn1c(=O)n(C2CCC(=O)NC2=O)c2cccc(N3CCN(C4CCN([C@H]5CC[C@H](n6cc(NC(=O)c7cnn8ccc(N9C[C@H]%10C[C@@H]9CO%10)nc78)c(C(F)F)n6)CC5)CC4)CC3)c21` (single isomer, unassigned) [I-201], the half-maximal degradation concentration (DC50) reads like this: under setting [1], less than 10 nM; under setting [2], greater than 200 nM.

`Cn1c(=O)n(C2CCC(=O)NC2=O)c2cccc(N3CCN(C4CCN([C@H]5CC[C@@H](n6cc(NC(=O)c7cnn8ccc(N9C[C@H]%10C[C@@H]9CO%10)nc78)c(C(F)F)n6)CC5)CC4)CC3)c21` (single isomer, unassigned) [I-425]: the DC50 under setting [1] is less than 10 nM and the DC50 under setting [2] is greater than 200 nM.

For `Cn1c(=O)n(C2CCC(=O)NC2=O)c2cccc([C@@H]3CCN(C[C@H]4CC[C@H](n5cc6cc(NC(=O)c7cccc(C(F)(F)F)n7)ncc6n5)CC4)C[C@H]3F)c21` (single isomer, unassigned) [I-656], the DC50 was greater than 200 nM under setting [1] and less than 10 nM under setting [2].

For `Cn1c(=O)n(C2CCC(=O)NC2=O)c2cccc(C3CN(C4CCN([C@H]5CC[C@H](n6cc(NC(=O)c7cnn8ccc(N9C[C@H]%10C[C@@H]9CO%10)nc78)c(C(F)F)n6)CC5)CC4(F)F)C3)c21` (single isomer, unassigned) [I-736], the DC50 reads like this: under setting [1], greater than 200 nM; under setting [2], less than 10 nM.

Consider `Cn1c(=O)n(C2CCC(=O)NC2=O)c2ccc(N3CC(CO[C@H]4CCN(C[C@H]5CC[C@H](n6cc(NC(=O)c7cnn8ccc(N9C[C@H]%10C[C@@H]9CO%10)nc78)c(C(F)F)n6)CC5)C[C@H]4F)C3)c(F)c21` (single isomer, unassigned) [I-738], for which the DC50 runs as follows: under setting [1], greater than 200 nM; under setting [2], less than 10 nM.

`Cn1c(=O)n(C2CCC(=O)NC2=O)c2cccc([C@H]3CCN(C[C@H]4CC[C@H](n5cc6cc(NC(=O)c7cccc(C(F)(F)F)n7)ncc6n5)CC4)C[C@H]3F)c21` (single isomer, unassigned) [I-781]: the half-maximal degradation concentration (DC50) under setting [1] is greater than 200 nM and the half-maximal degradation concentration (DC50) under setting [2] was greater than 200 nM.

`COc1ccc2c(c1C#CCO[C@@H]1CCN(C[C@H]3CC[C@H](n4cc(NC(=O)c5cnn6ccc(N7C[C@H]8C[C@@H]7CO8)nc56)c(C(F)F)n4)CC3)C[C@@H]1F)n(C)c(=O)n2C1CCC(=O)NC1=O` (stereo partly shown) [I-1]: the DC50 reads like this: under setting [1], 10 to 100 nM; under setting [2], greater than 200 nM.

Take `COc1ccc2c(c1C#CCOC1CCN(C[C@H]3CC[C@H](n4cc(NC(=O)c5cnn6ccc(N7C[C@H]8C[C@@H]7CO8)nc56)c(C(F)F)n4)CC3)CC1)n(C)c(=O)n2C1CCC(=O)NC1=O` (stereo partly shown) [I-2]: the DC50 was less than 10 nM under setting [1] and greater than 200 nM under setting [2].

With `Cn1c(=O)n(C2CCC(=O)NC2=O)c2cccc([C@]34C[C@](COC5CCN(C[C@H]6CC[C@H](n7cc(NC(=O)c8cnn9ccc(N%10C[C@H]%11C[C@@H]%10CO%11)nc89)c(C(F)F)n7)CC6)CC5)(C3)C4)c21` (stereo partly shown) [I-3], the 50% degradation concentration (DC50) was less than 10 nM under setting [1] and greater than 200 nM under setting [2].

Take `O=C1CCC(n2c(=O)n(C3CC3)c3c(C#CCN4CCN(C[C@H]5CC[C@H](n6cc(NC(=O)c7cnn8ccc(N9C[C@H]%10C[C@@H]9CO%10)nc78)c(C(F)F)n6)CC5)CC4)cccc32)C(=O)N1` (stereo partly shown) [I-4]: the DC50 is, setting by setting: under setting [1], less than 10 nM; under setting [2], greater than 200 nM.

Turning to `Cn1c(=O)n(C2CCC(=O)NC2=O)c2cccc(C#CCN3CCCN(C[C@H]4CC[C@H](n5cc(NC(=O)c6cnn7ccc(N8C[C@H]9C[C@@H]8CO9)nc67)c(C(F)F)n5)CC4)CC3)c21` (stereo partly shown) [I-5], the DC50 by setting is: under setting [1], less than 10 nM; under setting [2], greater than 200 nM.

With `O=C1CCN(c2cncc3c2cccc3[C@H]2C[C@@H](CN3CCN(C[C@H]4CC[C@H](n5cc(NC(=O)c6cnn7ccc(N8C[C@H]9C[C@@H]8CO9)nc67)c(C(F)F)n5)CC4)CC3)C2)C(=O)N1` [I-6], the half-maximal degradation concentration (DC50) by setting is: under setting [1], less than 10 nM; under setting [2], greater than 200 nM.

Turning to `Cn1c(=O)n(C2CCC(=O)NC2=O)c2cccc([C@]34C[C@](CN5CCN(C[C@H]6CC[C@H](n7cc(NC(=O)c8cnn9ccc(N%10C[C@H]%11C[C@@H]%10CO%11)nc89)c(C(F)F)n7)CC6)CC5)(C3)C4)c21` (stereo partly shown) [I-8], the DC50 is less than 10 nM under setting [1] and greater than 200 nM under setting [2].

With `C[C@H]1CN(C[C@H]2CC[C@H](n3cc(NC(=O)c4cnn5ccc(N6C[C@H]7C[C@@H]6CO7)nc45)c(C(F)F)n3)CC2)CCN1CC#Cc1cccc2c1n(C)c(=O)n2C1CCC(=O)NC1=O` (stereo partly shown) [I-9], the DC50 was 10 to 100 nM under setting [1] and greater than 200 nM under setting [2].

As to `O=C1CCN(c2cncc3c(C#CCOC4CCN(C[C@H]5CC[C@H](n6cc(NC(=O)c7cnn8ccc(N9C[C@H]%10C[C@@H]9CO%10)nc78)c(C(F)F)n6)CC5)CC4)cccc23)C(=O)N1` [I-10], the DC50 under setting [1] is less than 10 nM and the DC50 under setting [2] is greater than 200 nM.

Take `O=C1CCN(c2cncc3cc(C#CCOC4CCN(C[C@H]5CC[C@H](n6cc(NC(=O)c7cnn8ccc(N9C[C@H]%10C[C@@H]9CO%10)nc78)c(C(F)F)n6)CC5)CC4)ccc23)C(=O)N1` [I-11]: the DC50 is greater than 200 nM under setting [1] and greater than 200 nM under setting [2].

Turning to `Cn1c(=O)n(C2CCC(=O)NC2=O)c2cccc(C#CCOC3C[C@H]4CC[C@@H](C3)N4C[C@H]3CC[C@H](n4cc(NC(=O)c5cnn6ccc(N7C[C@H]8C[C@@H]7CO8)nc56)c(C(F)F)n4)CC3)c21` (stereo partly shown) [I-12], the DC50 is, setting by setting: under setting [1], greater than 200 nM; under setting [2], greater than 200 nM.

As to `CN(C[C@H]1CC[C@H](n2cc(NC(=O)c3cnn4cccnc34)c(C(F)F)n2)CC1)C1CCN(c2cccc3c(N4CCC(=O)NC4=O)cncc23)CC1` [I-13], the 50% degradation concentration (DC50) is greater than 200 nM under setting [1] and greater than 200 nM under setting [2].
